From ChEMBL document CHEMBL1129857, “Synthesis, molecular modeling, and biology of the 1-benzyl derivative of APDC-an apparent mGluR6 selective ligand” (Bioorg Med Chem Lett, 1997)

Experiments:
Format in all cases: functional
[1] = biological target: Metabotropic glutamate receptor 6 (Rattus norvegicus, UniProt P35349); assay: Tested for the agonistic activity against Metabotropic glutamate receptor 6
[2] = biological target: T1, Metabotropic glutamate receptor 5 (Rattus norvegicus, UniProt P31424); assay: Tested for the agonistic activity against Metabotropic glutamate receptor 5
[3] = biological target: T1, Metabotropic glutamate receptor 5; assay: Tested for the agonistic activity against Metabotropic glutamate receptor 5; Not active
[4] = biological target: T2, Metabotropic glutamate receptor 2 (Rattus norvegicus, UniProt P31421); assay: Tested for the agonistic activity against Metabotropic glutamate receptor 2; Not active
[5] = biological target: T3, Metabotropic glutamate receptor 1 (Rattus norvegicus, UniProt P23385); assay: Tested for the agonistic activity against Metabotropic glutamate receptor 1; Not active
[6] = biological target: T2, Metabotropic glutamate receptor 2; assay: Tested for the agonistic activity against Metabotropic glutamate receptor 2
[7] = biological target: T3, Metabotropic glutamate receptor 1; assay: Tested for the agonistic activity against Metabotropic glutamate receptor 1

Metabotropic glutamate receptor 6, sequence (P35349 whole entry): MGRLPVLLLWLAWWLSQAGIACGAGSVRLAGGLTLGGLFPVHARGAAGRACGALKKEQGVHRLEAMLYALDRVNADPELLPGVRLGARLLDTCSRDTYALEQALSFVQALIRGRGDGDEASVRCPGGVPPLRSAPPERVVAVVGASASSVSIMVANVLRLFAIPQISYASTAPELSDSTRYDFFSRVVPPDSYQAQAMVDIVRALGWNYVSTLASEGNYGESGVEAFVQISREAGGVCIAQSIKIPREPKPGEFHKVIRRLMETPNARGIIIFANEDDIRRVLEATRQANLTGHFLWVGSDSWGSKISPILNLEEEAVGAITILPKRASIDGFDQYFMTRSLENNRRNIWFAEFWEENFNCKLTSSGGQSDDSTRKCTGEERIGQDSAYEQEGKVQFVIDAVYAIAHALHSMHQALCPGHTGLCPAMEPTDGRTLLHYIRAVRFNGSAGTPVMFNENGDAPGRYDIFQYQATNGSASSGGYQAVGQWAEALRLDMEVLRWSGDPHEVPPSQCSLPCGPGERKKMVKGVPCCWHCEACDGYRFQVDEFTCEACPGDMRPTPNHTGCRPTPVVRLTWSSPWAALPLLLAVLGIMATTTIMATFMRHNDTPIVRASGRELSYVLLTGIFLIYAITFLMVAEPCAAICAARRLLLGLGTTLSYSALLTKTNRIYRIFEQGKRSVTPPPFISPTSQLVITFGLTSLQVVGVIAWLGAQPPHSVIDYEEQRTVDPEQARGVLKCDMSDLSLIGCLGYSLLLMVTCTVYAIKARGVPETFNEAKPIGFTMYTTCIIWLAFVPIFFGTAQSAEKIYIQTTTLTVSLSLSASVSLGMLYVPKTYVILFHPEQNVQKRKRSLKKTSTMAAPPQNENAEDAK
T3 sequence (P23385 whole entry): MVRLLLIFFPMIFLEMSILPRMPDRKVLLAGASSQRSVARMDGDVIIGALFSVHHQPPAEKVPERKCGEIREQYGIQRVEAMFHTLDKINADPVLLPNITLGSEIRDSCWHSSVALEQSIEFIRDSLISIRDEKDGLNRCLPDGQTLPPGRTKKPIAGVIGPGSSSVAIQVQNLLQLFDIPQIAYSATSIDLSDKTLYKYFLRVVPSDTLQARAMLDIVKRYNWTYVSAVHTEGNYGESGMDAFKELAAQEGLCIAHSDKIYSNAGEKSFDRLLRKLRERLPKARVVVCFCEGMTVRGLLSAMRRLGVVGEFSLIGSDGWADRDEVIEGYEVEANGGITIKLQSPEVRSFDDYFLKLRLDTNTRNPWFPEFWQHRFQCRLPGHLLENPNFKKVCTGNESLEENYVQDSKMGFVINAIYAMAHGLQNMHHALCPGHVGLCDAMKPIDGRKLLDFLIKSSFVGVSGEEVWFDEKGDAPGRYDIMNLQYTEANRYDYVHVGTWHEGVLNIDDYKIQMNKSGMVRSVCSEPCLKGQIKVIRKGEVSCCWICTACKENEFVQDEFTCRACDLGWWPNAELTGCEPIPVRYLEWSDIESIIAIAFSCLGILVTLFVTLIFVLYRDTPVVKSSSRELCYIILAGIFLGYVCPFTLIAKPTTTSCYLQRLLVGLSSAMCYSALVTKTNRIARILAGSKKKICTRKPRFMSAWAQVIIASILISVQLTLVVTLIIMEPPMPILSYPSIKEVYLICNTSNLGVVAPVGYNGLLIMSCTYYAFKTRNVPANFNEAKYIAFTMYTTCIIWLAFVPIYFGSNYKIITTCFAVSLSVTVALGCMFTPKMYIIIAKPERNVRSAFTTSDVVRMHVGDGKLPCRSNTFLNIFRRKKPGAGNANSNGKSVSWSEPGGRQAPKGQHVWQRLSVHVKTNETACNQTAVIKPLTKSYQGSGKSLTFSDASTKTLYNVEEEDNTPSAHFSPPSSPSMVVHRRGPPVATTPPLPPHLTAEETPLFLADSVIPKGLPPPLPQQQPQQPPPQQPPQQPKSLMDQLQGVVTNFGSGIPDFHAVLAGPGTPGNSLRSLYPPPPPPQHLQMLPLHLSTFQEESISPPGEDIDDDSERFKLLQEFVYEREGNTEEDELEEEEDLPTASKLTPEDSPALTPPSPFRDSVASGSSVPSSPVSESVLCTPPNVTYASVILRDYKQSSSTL
T2 sequence (P31421 whole entry): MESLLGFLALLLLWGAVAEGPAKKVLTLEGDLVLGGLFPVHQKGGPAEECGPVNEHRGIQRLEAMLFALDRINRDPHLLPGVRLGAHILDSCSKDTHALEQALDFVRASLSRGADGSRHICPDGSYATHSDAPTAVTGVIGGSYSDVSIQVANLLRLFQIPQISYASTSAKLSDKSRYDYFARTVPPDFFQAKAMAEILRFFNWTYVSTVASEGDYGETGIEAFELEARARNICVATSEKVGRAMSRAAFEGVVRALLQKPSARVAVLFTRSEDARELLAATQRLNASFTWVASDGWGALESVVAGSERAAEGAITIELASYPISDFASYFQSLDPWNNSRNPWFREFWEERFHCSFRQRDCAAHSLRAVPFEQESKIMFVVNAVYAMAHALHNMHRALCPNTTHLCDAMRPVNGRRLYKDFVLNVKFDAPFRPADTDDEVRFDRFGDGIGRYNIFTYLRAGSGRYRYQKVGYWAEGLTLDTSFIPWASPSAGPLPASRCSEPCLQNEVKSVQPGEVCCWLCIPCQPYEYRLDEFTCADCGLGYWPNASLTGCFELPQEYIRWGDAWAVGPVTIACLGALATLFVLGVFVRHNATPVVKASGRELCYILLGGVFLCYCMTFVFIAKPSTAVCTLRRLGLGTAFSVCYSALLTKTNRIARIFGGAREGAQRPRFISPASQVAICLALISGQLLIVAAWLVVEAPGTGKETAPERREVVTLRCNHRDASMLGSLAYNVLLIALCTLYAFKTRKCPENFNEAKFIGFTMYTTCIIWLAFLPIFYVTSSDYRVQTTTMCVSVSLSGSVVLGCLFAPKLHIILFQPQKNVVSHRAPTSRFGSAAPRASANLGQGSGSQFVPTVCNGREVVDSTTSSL
T1 sequence (P31424 whole entry): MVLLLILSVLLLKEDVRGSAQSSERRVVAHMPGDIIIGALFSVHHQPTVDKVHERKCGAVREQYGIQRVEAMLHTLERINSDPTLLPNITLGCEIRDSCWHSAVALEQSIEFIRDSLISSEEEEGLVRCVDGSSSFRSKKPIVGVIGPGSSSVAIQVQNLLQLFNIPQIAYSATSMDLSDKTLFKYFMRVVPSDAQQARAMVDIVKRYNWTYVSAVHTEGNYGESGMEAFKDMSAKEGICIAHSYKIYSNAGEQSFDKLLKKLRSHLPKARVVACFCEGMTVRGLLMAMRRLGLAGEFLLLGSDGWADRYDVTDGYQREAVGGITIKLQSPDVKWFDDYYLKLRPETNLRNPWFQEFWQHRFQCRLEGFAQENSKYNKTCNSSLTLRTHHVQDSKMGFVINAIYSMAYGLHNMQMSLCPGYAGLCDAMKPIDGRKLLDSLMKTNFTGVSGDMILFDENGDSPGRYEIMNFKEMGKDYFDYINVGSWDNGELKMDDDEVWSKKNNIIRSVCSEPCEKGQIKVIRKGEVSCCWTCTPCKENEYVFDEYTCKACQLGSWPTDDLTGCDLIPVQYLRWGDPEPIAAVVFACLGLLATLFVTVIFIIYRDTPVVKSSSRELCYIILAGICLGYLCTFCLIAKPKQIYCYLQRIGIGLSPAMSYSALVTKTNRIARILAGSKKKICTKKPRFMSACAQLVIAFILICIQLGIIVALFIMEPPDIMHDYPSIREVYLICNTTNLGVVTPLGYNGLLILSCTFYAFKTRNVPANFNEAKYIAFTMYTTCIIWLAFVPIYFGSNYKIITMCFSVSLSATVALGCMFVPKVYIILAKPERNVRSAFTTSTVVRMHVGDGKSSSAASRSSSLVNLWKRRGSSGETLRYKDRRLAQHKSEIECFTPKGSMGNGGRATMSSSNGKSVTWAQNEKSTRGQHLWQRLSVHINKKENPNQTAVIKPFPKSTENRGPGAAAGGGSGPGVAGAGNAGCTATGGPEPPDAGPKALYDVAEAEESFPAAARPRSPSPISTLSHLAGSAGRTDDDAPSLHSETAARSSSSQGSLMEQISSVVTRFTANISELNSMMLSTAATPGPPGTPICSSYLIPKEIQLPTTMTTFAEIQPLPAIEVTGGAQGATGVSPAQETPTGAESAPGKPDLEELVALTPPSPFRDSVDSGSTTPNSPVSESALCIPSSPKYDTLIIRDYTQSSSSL

EC50 [1]	EC50 [7]	Structure (SMILES)	EC50 [2]	also measured
1000 µM		O=C(N[C@@]1(C(=O)O)CN[C@@H](C(=O)O)C1)c1ccccc1		EC50 [3]: Not Active; EC50 [4]: Not Active; EC50 [5]: Not Active
110 µM	100 µM	N[C@@]1(C(=O)O)CN[C@@H](C(=O)O)C1	200 µM	EC50 [6]: 0.3 µM
20 µM	> 1000 µM	N[C@]1(C(=O)O)C[C@H](C(=O)O)N(Cc2ccccc2)C1		IC50 [2]: 600 µM; IC50 [6]: 200 µM

Structure (SMILES)	EC50 [1]	EC50 [7]	EC50 [2]	also measured
NC(CCP(=O)(O)O)C(=O)O (stereo not given)	1 µM			
N[C@@]1(C(=O)O)CC[C@@H](C(=O)O)C1	60 µM		15 µM	
